Literature values as cited in patent US20020025341A1, “Controlled release formulation of divalproex sodium” (priority 1998, published 2002).
Read-outs that look alike come from different tables or passages of the source.

What was measured:
[1] = patients consuming valproate

Structure (SMILES) | half life (in adults) | half life (in children) | free fraction (plasma protein binding) (plasma proteins; at 40 μg/ml) | free fraction (plasma protein binding) (plasma proteins; at 130 μg/ml) [%] | patients affected by GI irritation [1]
CCCC(CCC)C(=O)O [valproic acid, 2-Propylpentanoic acid] | between six and seventeen hours | between four and fourteen hours |  |  | 
CCCC(CCC)C(=O)O [valproate] |  |  | approximately 10% | 18.5 | up to one third of patients
